Data from patent US10874743B2, “IRAK degraders and uses thereof” (Kymera Therapeutics, Inc., priority 2017, dated 2020).

What was measured:
IRAK4 [1] = molecular target: T1, IRAK4 (Homo sapiens, UniProt Q9NWZ3); assay: PBMC degradation assay (western blot, % IRAK4 degraded after 4 hours); type: cell-based; details: human PBMCs
T1 sequence (Q9NWZ3 1-460): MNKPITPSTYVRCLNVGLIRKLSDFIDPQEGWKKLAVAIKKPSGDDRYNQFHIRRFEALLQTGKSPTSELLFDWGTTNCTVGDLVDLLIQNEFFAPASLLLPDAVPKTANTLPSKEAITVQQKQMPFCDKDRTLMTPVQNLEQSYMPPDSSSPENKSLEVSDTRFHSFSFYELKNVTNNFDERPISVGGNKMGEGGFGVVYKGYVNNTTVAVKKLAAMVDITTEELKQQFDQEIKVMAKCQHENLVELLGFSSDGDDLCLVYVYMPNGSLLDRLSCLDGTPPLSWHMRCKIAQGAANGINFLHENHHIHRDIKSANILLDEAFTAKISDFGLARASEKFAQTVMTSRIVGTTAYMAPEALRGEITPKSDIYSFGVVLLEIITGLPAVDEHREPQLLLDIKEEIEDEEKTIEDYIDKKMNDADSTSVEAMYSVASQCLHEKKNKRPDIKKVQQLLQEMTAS
Procedure: Protocol summary of PBMC degradation studies from compound treatment through quantitation.
PBMC culture medium: Human peripheral blood mononuclear cells (PBMCs): RPMI+10% FBS (Heat-inactivated)+1% P/S.
Cells were cultured at a minimum of 2.5×10^6 c/mL. • PBMCs were incubated @ 37° C./5% CO2 and allowed to rest overnight. • Following overnight recovery, a cell count/viability assessment by trypan blue exclusion was performed. Cells densities were adjusted back to 2.5×10^6 c/mL (proceed with plating only if viability >80%). • In a 6 well plate, 2.0 mL of cells were added to each well for a minimum of 5×10^6 CT per treatment condition. Compounds dilutions were prepared from 20 mM stock and were added at a final 1000× dilution (0.1% DMSO concentration). • At the end of treatment, cells were harvested and spun @ 1800 rpm for 5 min. 1×PBS wash and spun again @ 1800 rpm for 5 min. Cell pellets were frozen and stored at −80° C. until further processing. • Lysates were generated by resuspending in lysis buffer. Protein quantification was performed with a BCA kit. • 20 μg of protein were loaded per lane and run on a 26-well 4-12% Bis-Tris SDS-page gel. • Transfers were performed on PVDF membranes using the BioRad Mixed MW turbo program for 7 min. • Membranes were blocked for one hour on a rocker at room temperature. • Primary antibodies were incubated overnight at 4° C. on a rocker. • Membranes were washed 3×TBST, 5 min each. • Secondaries were added and incubated for one hour on a rocker at room temperature. • Membranes were washed 3×TBST, 5 min each and rinsed well with deionized H2O. Membranes were scanned using the Licor Odessey CLx and bands were quantified using Image Studio Lite Version 5.2 software.
PBMC results at 4 hours. The letter codes indicate the percentage of IRAK4 degraded after 4 hours: A (>50% degradation), B (>20-50% degradation) and C (<20% degradation)

IRAK4 [2] = molecular target: T1, IRAK4; assay: THP-1 degradation assay (western blot, % IRAK4 degraded after 24 hours); type: cell-based; set-up: endogenous in cells; details: THP-1 cells
Procedure: Compounds were reconstituted in DMSO to make stock solutions at concentration of 60 mM. THP-1 and OCI-LY10 cells were maintained in RPMI-1640 medium containing 10% FBS, 0.5 μM 2-ME or 20% FBS, 55 μM 2-ME, and 1% L-Glutamine respectively.
Cells were seeded into 6-well plates with 5e6 cells per well. 200 μL of diluted compounds were added to cells to the final concentration of 0.003-10 μM. After 4 or 24 hour-incubation at 37° C., cells were collected into 2 mL Eppendorf tubes and centrifuged at 1,000 rpm for 5 min. The cell pellets were washed with 1×DPBS once and resuspended in 60 μL lysis buffer. The cells were lysed on ice for 10 min, then centrifuged at 14,000 rpm for 10 min at 4° C. and the supernatants were collected for western blots. For THP-1 cells, the lysis buffer contained 40 mM pH 7.4 HEPES, 140 mM NaCl, 2.5 mM EDTA, 1% NP-40, 0.1% SDS, and protease inhibitor cocktail (Roche, Cat. No. 05892791001). For OCI-LY10 cells, RIPAbuffer (Thermo Fisher, 89900) with Halt Protease and Phosphatase Inhibitor Cocktail (Thermo Fisher, 78446) was applied.
The protein concentration of cell lysates was quantified with Pierce™ BCA Protein Assay Kit (Pierce, 23227). Albumin standards at different concentrations were prepared, involving 2,000 ug/mL, 1,500 ug/mL, 1,000 ug/mL, 750 ug/mL, 500 ug/mL, 250 ug/mL, 125 ug/mL, and 25 ug/mL. BCA working reagents were prepared by mixing BCA reagent A with reagent B in 50:1 ratio. 200 μL of the BCA working reagents were added to 25 μL of BCA standard or cell lysates in microplate, and mixed thoroughly on a plate shaker for 30 seconds. After incubation at 37° C. for 30 min, the absorbance of samples at 562 nm were measured with EnVision Plate Reader.
Protein lysates were prepared in NuPAGE™ LDS sample buffer and NuPAGE™ sample reducing agent, and incubated at 95° C. for 5 min. For western blots, 20-25 μg of total proteins were resolved in 4-12% Bis-Tris gels (Introgen, WG1403A) or 10% Bis-Tris Midi gels (Invitrogen, WG1202BOX) running with 1×MOPS SDS running buffer (Invitrogen, NP0001) or 1×MES SDS running buffer (Invitrogen, NP0002). The proteins were transferred to low fluorescence PVDF membranes using the Trans-Blot Turbo Transfer System. Membranes were then blocked in Odyssey blocking buffer at RT for 1 h followed by primary incubation at 4° C. overnight. The primary antibodies were IRAK1 rabbit monoclonal antibody (CST, #4504S, 1:500), IRAK3 rabbit polyclonal antibody (CST, #4369, 1:500), IRAK4 rabbit polyclonal antibody (CST, #4363S, 1:1,000), MyD88 rabbit monoclonal antibody (Abcam, Ab133739, 1:2,000), j3-actin mouse monoclonal antibody (Sigma, A5441, 10,000), and Gapdh mouse monoclonal antibody (Millipore, MAB374, 1:5,000). Membranes were washed three times with 1×TBST, and then incubated with IR Dye 800 CW Goat anti-rabbit (Licor, #926-32211) and IR Dye 700 CW Goat anti-mouse (Licor, #926-68070) secondary antibodies in 1:10,000 dilution at RT for 1 h. The western blot images were obtained using Odyssey Imaging System.
THP-1 results at 24 hours. The letter codes indicate the percentage of IRAK4 degraded after 24 hours: A (>50% degradation), B (>20-50% degradation) and C (<20% degradation)

| PBMC % IRAK4 Degradation (IRAK4 [1]) | THP-1 24 h % IRAK4 Degradation (IRAK4 [2]) | Compound |
| --- | --- | --- |
| A (>50% degradation) | – | NC(=O)c1nn(-c2ccc(C(=O)NCCOCCOCCOCCOCCNc3cccc4c3C(=O)N(C3CCC(=O)NC3=O)C4=O)cc2)cc1NC(=O)c1coc(-c2ccnc(NCC(F)(F)F)c2)n1 (stereo not drawn) [I-53] |
| C (<20% degradation) | – | NC(=O)c1nn(-c2ccc(C(=O)NCCCCCCCCCCCNC(=O)COc3cccc4c3C(=O)N(C3CCC(=O)NC3=O)C4=O)cc2)cc1NC(=O)c1coc(-c2ccnc(NCC(F)(F)F)c2)n1 (stereo not drawn) [I-104] |
| A (>50% degradation) | – | NC(=O)c1nn(-c2ccc(C(=O)NCCCCCNC(=O)COc3cccc4c3C(=O)N(C3CCC(=O)NC3=O)C4=O)cc2)cc1NC(=O)c1coc(-c2ccnc(NCC(F)(F)F)c2)n1 (stereo not drawn) [I-106, N-[3-carbamoyl-1-[4-[5-[[2-[2-(2,6-dioxo-3-piperidyl)-1,3-dioxo-isoindolin-4-yl]oxyacetyl]amino]pentylcarbamoyl]phenyl]pyrazol-4-yl]-2-[2-(2,2,2-trifluoroethylamino)-4-pyridyl]oxazole-4-carboxamide] |
| C (<20% degradation) | – | NC(=O)c1nn(-c2ccc(C(=O)NCCOCCOCCOCCNC(=O)COc3cccc4c3C(=O)N(C3CCC(=O)NC3=O)C4=O)cc2)cc1NC(=O)c1coc(-c2ccnc(NCC(F)(F)F)c2)n1 (stereo not drawn) [I-108] |
| B (>20-50% degradation) | – | NC(=O)c1nn(-c2ccc(C(=O)NCCCCCCCCNC(=O)COc3cccc4c3C(=O)N(C3CCC(=O)NC3=O)C4=O)cc2)cc1NC(=O)c1coc(-c2ccnc(NCC(F)(F)F)c2)n1 (stereo not drawn) [I-109] |
| A (>50% degradation) | – | NC(=O)c1nn(-c2ccc(C(=O)NCCOCCNC(=O)COc3cccc4c3C(=O)N(C3CCC(=O)NC3=O)C4=O)cc2)cc1NC(=O)c1coc(-c2ccnc(NCC(F)(F)F)c2)n1 (stereo not drawn) [I-110] |
| B (>20-50% degradation) | – | NC(=O)c1nn(-c2ccc(C(=O)NCCCCNC(=O)COc3cccc4c3C(=O)N(C3CCC(=O)NC3=O)C4=O)cc2)cc1NC(=O)c1coc(-c2ccnc(NCC(F)(F)F)c2)n1 (stereo not drawn) [I-111] |
| A (>50% degradation) | – | NC(=O)c1nn(-c2ccc(C(=O)NCCCNC(=O)COc3cccc4c3C(=O)N(C3CCC(=O)NC3=O)C4=O)cc2)cc1NC(=O)c1coc(-c2ccnc(NCC(F)(F)F)c2)n1 (stereo not drawn) [I-112] |
| A (>50% degradation) | – | NC(=O)c1nn(-c2ccc(C(=O)NCCOCCCCCOCCNC(=O)COc3cccc4c3C(=O)N(C3CCC(=O)NC3=O)C4=O)cc2)cc1NC(=O)c1coc(-c2ccnc(NCC(F)(F)F)c2)n1 (stereo not drawn) [I-116, N-(3-carbamoyl-1-(4-((2-((5-(2-(2-((2-(2,6-dioxopiperidin-3-yl)-1,3-dioxoisoindolin-4-yl)oxy)acetamido)ethoxy)pentyl)oxy)ethyl)carbamoyl)phenyl)-1H-pyrazol-4-yl)-2-(2-((2,2,2-trifluoroethyl)amino)pyridin-4-yl)oxazole-4-carboxamide] |
| A (>50% degradation) | – | NC(=O)c1nn(-c2ccc(C(=O)NCCOCCOCCNc3cccc4c3CN(C3CCC(=O)NC3=O)C4=O)cc2)cc1NC(=O)c1coc(-c2ccnc(NCC(F)(F)F)c2)n1 (stereo not drawn) [I-117, N-(3-carbamoyl-1-(4-((2-(2-(2-((2-(2,6-dioxopiperidin-3-yl)-1-oxoisoindolin-4-yl)amino)ethoxy)ethoxy)ethyl)carbamoyl)phenyl)-1H-pyrazol-4-yl)-2-(2-((2,2,2-trifluoroethyl)amino)pyridin-4-yl)oxazole-4-carboxamide] |
| A (>50% degradation) | – | NC(=O)c1nn(-c2ccc(C(=O)NCCOCCOCCOCCNc3cccc4c3C(=O)N(C3CCC(=O)NC3=O)C4=O)cc2)cc1NC(=O)c1coc(-c2ccnc(NCC(F)(F)F)c2)n1 (stereo not drawn) [I-128] |
| A (>50% degradation) | – | NC(=O)c1nn(-c2ccc(C(=O)NCCOCCNc3cccc4c3C(=O)N(C3CCC(=O)NC3=O)C4=O)cc2)cc1NC(=O)c1coc(-c2ccnc(NCC(F)(F)F)c2)n1 (stereo not drawn) [I-130] |
| B (>20-50% degradation) | – | NC(=O)c1nn(-c2ccc(C(=O)NCCCCCCCCCCCNc3cccc4c3C(=O)N(C3CCC(=O)NC3=O)C4=O)cc2)cc1NC(=O)c1coc(-c2ccnc(NCC(F)(F)F)c2)n1 (stereo not drawn) [I-133] |
| C (<20% degradation) | – | O=C1CCC(N2C(=O)c3cccc(NCCOCCOCCNC(=O)c4ccc(-n5cc(NC(=O)c6coc(-c7ccnc(NCC(F)(F)F)c7)n6)c(C(F)(F)F)n5)cc4)c3C2=O)C(=O)N1 (stereo not drawn) [I-134] |
| A (>50% degradation) | – | NC(=O)c1nn(-c2ccc(C(=O)NCCCOCCCNc3cccc4c3C(=O)N(C3CCC(=O)NC3=O)C4=O)cc2)cc1NC(=O)c1coc(-c2ccnc(NCC(F)(F)F)c2)n1 (stereo not drawn) [I-141] |
| – | C (<20% degradation) | COc1cc(Nc2nc(N[C@H]3CCCC[C@H]3N)n3ccnc3c2C(N)=O)cc(OCCOCCOCCOCCOCCNc2cccc3c2C(=O)N(C2CCC(=O)NC2=O)C3=O)c1 (stereo partly drawn) [I-199] |
| – | C (<20% degradation) | COc1cc(Nc2nc(N[C@H]3CCCC[C@H]3N)n3ccnc3c2C(N)=O)cc(OC)c1OCCOCCOCCOCCNc1cccc2c1C(=O)N(C1CCC(=O)NC1=O)C2=O (stereo partly drawn) [I-200, 5-(((1S,2R)-2-aminocyclohexyl)amino)-7-((4-(2-(2-(2-(2-((2-(2,6-dioxopiperidin-3-yl)-1,3-dioxoisoindolin-4-yl)amino)ethoxy)ethoxy)ethoxy)ethoxy)-3,5-dimethoxyphenyl)amino)imidazo[1,2-c]pyrimidine-8-carboxamide] |
| – | B (>20-50% degradation) | COc1cc2c(cc1OCCOCCOCCOCCOCCOCC(=O)N[C@H](C(=O)N1C[C@H](O)C[C@H]1C(=O)NCc1ccc(-c3scnc3C)cc1)C(C)(C)C)ncc1c3ccc(C#N)cc3[nH]c21 [I-203] |
